Experiment [1] has as its system antibodies to advanced glycosylation endproducts. In words: Recognition of compounds by monoclonal antibodies to advanced glycosylation endproducts (direct/competition ELISA). It is filed as binding. To be noted: qualitative. The procedure: (§1) The ability of monoclonal antibodies, mAb 4G9, mAb BH4 and mAb 2G6, raised against KLH non-enzymatically glycated by prolonged incubation with glucose (KLH-AGE), to recognize the disodium 6-(N-carboxymethylamino)caproate was determined.
Direct ELISA and competition ELISA. For direct ELISA, 6- (N-carboxymethylamino)caproate was coated on microtiter plates, the unbound sites were blocked by incubation with Assay Buffer (25 mM borate, pH 8.0, 150 mM NaCl, 0.01% EDTA and 1% BSA). The plate was washed six times and increasing concentrations of mAb in Assay Buffer were added. After this incubation, the plate was again washed and incubated with alkaline-phosphatase labeled goat anti-mouse antibodies (Cappel, Durham, N.C.) diluted 1:1000 in Assay Buffer. The unbound antibodies were removed by extensive washing and the bound antibodies were detected by addition of p-nitrophenylphosphate in recording the optical density at 410 nm.
(§2) The competition ELISA was performed by pre-coating microtiter plates with disodium 6-(N-carboxymethylamino)caproate and blocking with Assay Buffer. […] The unbound materials were removed by extensive washing and the bound mAb was detected with alkaline phosphatase labeled anti-mouse antibodies similar to direct ELISA. […]
On the technique in general: ELISA stands for enzyme-linked immunosorbent assay.

In the next experiment the target is monoclonal antibody BH4. Nature of the experiment: Competition ELISA, inhibition of mAb BH4 binding. Also noted: species or system mouse. The method, then:
as §1
(§3) Direct ELISA and competition ELISA. For direct ELISA, 6- (N-carboxymethylamino)caproate was coated on microtiter plates, the unbound sites were blocked by incubation with Assay Buffer (25 mM borate, pH 8.0, 150 mM NaCl, 0.01% EDTA and 1% BSA). The plate was washed six times and increasing concentrations of mAb in Assay Buffer were added. […] The unbound antibodies were removed by extensive washing and the bound antibodies were detected by addition of p-nitrophenylphosphate in recording the optical density at 410 nm.
as §2
(§4) Competitive ELISA: Plates coated with BSA-AGE at 10 μg/ml. […] In the case of isothiocyanate the plates are soaked for 15 minutes with varying concentrations of isothiocyanate and the level of binding then measured.

In a further experiment the target is monoclonal antibody 2G6. Nature of the experiment: Competition ELISA, inhibition of mAb 2G6 binding. Also on record: species or system mouse. The method, then: as §1, §3, §2, §4
A further experiment concerns the target monoclonal antibody 4G9. Nature of the experiment: Competition ELISA, inhibition of mAb 4G9 binding. Also on record: species or system mouse. The procedure:
as §1, §3, §2, §4

In experiment [2] the test system is advanced glycosylation endproducts. To be noted: U.S. Pat. No. 4,758,583; cited from earlier work.
A further experiment concerns Hb-AGE. To be noted: diabetic patients treated for 28 days; WO 93/13421; cited from earlier work.
Setting [3] is: Competitive ELISA, plates coated with BSA-AGE at 10 μg/ml.

As for `O=C(O)CCCCCNCC(=O)O` [ALT-927, disodium 6-(N-carboxymethylamino)caproate], the “recognition by antibodies which recognize advanced glycosylation endproducts” value in experiment [1] is reported as “have been shown to recognize”. Moreover, the “Concentration of Antigen for 50% Inhibition of mAb BH4” value on monoclonal antibody BH4 (setting [3]) is given as 5.7 pmol/well. Besides, in the experiment on monoclonal antibody BH4 (qualitative, ELISA), the “recognition by monoclonal antibody BH4” value is “displayed recognition”. Further, the “Concentration of Antigen for 50% Inhibition of mAb 2G6” value at monoclonal antibody 2G6 (setting [3]) is reported as 21 pmol/well. Besides, the “recognition by monoclonal antibody 2G6” value in the experiment with monoclonal antibody 2G6 (qualitative, ELISA) was “displayed recognition”. In addition, at monoclonal antibody 4G9 (setting [3]), the “Concentration of Antigen for 50% Inhibition of mAb 4G9” value came out at 11 pmol/well. Also, the “recognition by monoclonal antibody 4G9” value in the experiment on monoclonal antibody 4G9 (qualitative, ELISA) is “displayed recognition”.

On to `N=C(N)NN` [aminoguanidine], for which the “inhibition of formation of advanced glycosylation endproducts” value in experiment [2] is on record as “identified as an inhibitor”. Further, the “levels of Hb-AGE at the end of the treatment period” value in the experiment on Hb-AGE is reported as “significantly decreased levels of Hb-AGE”.

These data come from US5869527A, “6-(N-carboxymethylamino)caproate, salts thereof and methods of use therefor” (Alteon Inc., priority 1996, dated 1999).
